Patent US9290791B2, “Reagents and methods for sirtuin capture” (CORNELL UNIVERSITY, priority 2010, dated 2016)

Legend:
sirtuin = conditions: known sirtuin inhibitor; cited from earlier work
SirT5 = target: T1, SirT5 (Homo sapiens, UniProt Q9NXA8); test: Sirtuin inhibitor screening pulldown assay (NAD+, azido-thiotripeptide, alkynyl-biotin; SDS-PAGE, silver stain); assay type: biochemical; conditions: 500 μM inhibitor; sirtuin mixture, 5.04 μM SirT5, 500 μM NAD+, 200 μM 4-azido-BzlK(AcS)AAOMe; FIG. 10
T1 construct: SirT5(34-302); poly histidine tag (N); made in house; host or cells: E. coli BL21-CodonPlus(DE3)-RIPL
T1 sequence (Q9NXA8 34-302): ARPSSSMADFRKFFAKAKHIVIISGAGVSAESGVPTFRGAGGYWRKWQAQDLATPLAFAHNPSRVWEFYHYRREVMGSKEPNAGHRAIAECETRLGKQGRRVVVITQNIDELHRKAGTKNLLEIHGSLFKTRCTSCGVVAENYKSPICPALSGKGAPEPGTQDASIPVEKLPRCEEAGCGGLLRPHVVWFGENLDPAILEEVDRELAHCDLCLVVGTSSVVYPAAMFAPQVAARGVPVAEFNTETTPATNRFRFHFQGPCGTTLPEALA
Procedure: (§1) The key criterion for our pulldown technology is the formation of a stalled thioimidate complex with a cross-linkable moiety at the active site on sirtuins. If the presence of a sirtuin inhibitor can interrupt thioimidate formation, there will be less or no sirtuin can be harvested later on.
(§2) Pulldown assay: a typical reaction was performed in 100 mM phosphate buffer pH 7.5 in a total volume of 100 μL. Each reaction contained 500 μM of NAD^+, 200 μM of 4-azido-BzlK(AcS)AAOMe, and various concentrations of potential inhibitors. One control experiment which contained 500 μM of NAD^+ only were run at the same time. Reactions were initiated by addition of enzymes with final concentrations: 5 μM for SirT1, 3.4 μM for SirT2, 4.9 μM for SirT3, 5.04 μM for SirT5 and 5.35 μM for SirT6. Reactions were incubated at 37° C. for 30 min and then alkynyl-biotin was added to each sample to a final concentration of 500 μM followed by 3 μL of freshly premixed click chemistry cocktail: CuSO4 (final concentration 1 mM), tris[(1-benzyl-1H-1,2,3-triazol-4-yl)methyl]amine (TBTA, final concentration 600 μM) and tris(2-carboxyethyl)phosphine hydrochloride (TCEP, final concentration 2 mM). The samples were incubated at room temperature for 30 min. Then, 50 μL streptavidin beads (pretreated with 1 mM of BSA) were added to each sample and the incubation were continued at room temperature for 1 h. […]

SirT1 [1] = target: T2, SirT1 (Homo sapiens, UniProt Q96EB6); test: as above; assay type: biochemical; conditions: 500 μM inhibitor; sirtuin mixture, 5 μM SirT1, 500 μM NAD+, 200 μM 4-azido-BzlK(AcS)AAOMe; FIG. 10
Procedure: as §1, §2

SirT1 [2] = target: T2, SirT1; test: HPLC deacetylation assay of SirT1 with p53mer; assay type: biochemical; conditions: 3 μM SirT1, 500 μM NAD+, 300 μM p53mer, various concentrations of suramin; FIG. 11
Procedure: HPLC assay: reactions were performed in 100 mM phosphate buffer pH 7.5 in a total volume of 50 μL. Each reaction contained 500 μM of NAD^+, 300 μM of p53mer and various concentrations of suramin. Reactions were initiated by addition of SirT1 to a final concentration of 3 μM. A negative control which contained 500 μM of NAD^+ and 300 μM of p53mer, but was quenched by addition of TFA before the addition of enzyme was run at the same time. The reactions were incubated at 37° C. for 20 min before being quenched by 8 of 10% TFA. The samples were then injected on an HPLC fitted to a Macherey-Nagel Nucleosil C18 column. AADPR, NAD^+ and NAM peaks were resolved using a gradient of 0 to 10% methanol in 20 mM ammonium acetate. Chromatograms were analyzed at 260 nm.

SirT3 = target: T3, SirT3 (Homo sapiens, UniProt Q9NTG7); test: Sirtuin inhibitor screening pulldown assay (NAD+, azido-thiotripeptide, alkynyl-biotin; SDS-PAGE, silver stain); assay type: biochemical; conditions: 500 μM inhibitor; sirtuin mixture, 4.9 μM SirT3, 500 μM NAD+, 200 μM 4-azido-BzlK(AcS)AAOMe; FIG. 10
T3 construct: poly histidine tag (N); made in house; host or cells: E. coli BL21-CodonPlus(DE3)-RIPL
T3 sequence (Q9NTG7 1-399): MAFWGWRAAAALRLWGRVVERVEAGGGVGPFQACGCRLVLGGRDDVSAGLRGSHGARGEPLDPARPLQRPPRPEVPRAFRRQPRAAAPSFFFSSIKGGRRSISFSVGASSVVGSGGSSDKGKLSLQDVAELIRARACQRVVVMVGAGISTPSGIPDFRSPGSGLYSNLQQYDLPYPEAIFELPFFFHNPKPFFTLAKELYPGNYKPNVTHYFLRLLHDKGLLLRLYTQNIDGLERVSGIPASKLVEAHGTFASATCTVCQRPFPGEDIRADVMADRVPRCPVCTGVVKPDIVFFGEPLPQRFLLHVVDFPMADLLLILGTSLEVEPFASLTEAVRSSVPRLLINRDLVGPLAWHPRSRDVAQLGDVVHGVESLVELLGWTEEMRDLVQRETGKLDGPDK
Procedure: as §1, §2

[3] = test system: class III HDACs (sirtuins); test: Sirtuin inhibitor screening pulldown assay on sirtuin mixture; assay type: biochemical; conditions: 20 μM inhibitor; mixture of SirT1, SirT2, SirT3, SirT5, SirT6; FIG. 10
Procedure: as §1, §2

T2 sequence (Q96EB6 whole entry, species assumed): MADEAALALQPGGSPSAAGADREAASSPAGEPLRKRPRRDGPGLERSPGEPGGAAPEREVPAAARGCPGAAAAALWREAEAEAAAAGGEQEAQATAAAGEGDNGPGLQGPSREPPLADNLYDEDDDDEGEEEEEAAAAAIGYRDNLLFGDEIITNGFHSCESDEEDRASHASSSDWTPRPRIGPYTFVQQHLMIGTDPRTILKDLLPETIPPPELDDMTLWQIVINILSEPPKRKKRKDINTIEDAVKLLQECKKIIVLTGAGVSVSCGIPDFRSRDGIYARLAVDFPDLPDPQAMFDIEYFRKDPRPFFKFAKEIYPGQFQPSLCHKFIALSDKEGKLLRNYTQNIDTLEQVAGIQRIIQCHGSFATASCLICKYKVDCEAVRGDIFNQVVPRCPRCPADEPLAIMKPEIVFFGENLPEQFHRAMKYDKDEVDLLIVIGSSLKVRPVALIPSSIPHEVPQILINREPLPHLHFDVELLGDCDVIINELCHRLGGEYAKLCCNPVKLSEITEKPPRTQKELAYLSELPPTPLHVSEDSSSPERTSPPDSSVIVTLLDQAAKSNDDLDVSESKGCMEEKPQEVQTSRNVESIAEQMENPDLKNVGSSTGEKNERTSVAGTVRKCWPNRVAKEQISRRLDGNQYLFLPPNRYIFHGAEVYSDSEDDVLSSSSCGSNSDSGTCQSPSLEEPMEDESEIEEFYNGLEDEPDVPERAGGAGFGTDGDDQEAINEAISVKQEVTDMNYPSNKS

| Structure (SMILES) | IC50 (sirtuin) | SirT5 captured by standard pulldown assay (SirT5) | SirT1 captured by standard pulldown assay (SirT1 [1]) | inhibition confirmed by HPLC assay (SirT1 [2]) | SirT3 captured by standard pulldown assay (SirT3) | effect on sirtuin capture in pulldown assay [3] |
| --- | --- | --- | --- | --- | --- | --- |
| Cc1ccc(C(=O)Nc2ccc(S(=O)(=O)O)c3cc(S(=O)(=O)O)cc(S(=O)(=O)O)c23)cc1NC(=O)c1cccc(NC(=O)Nc2cccc(C(=O)Nc3cc(C(=O)Nc4ccc(S(=O)(=O)O)c5cc(S(=O)(=O)O)cc(S(=O)(=O)O)c45)ccc3C)c2)c1 [Suramin, suramin] | low micromolar range | less | less | confirmed | less |  |
| CC(/C=C/C(=O)NO)=C\[C@@H](C)C(=O)c1ccc(N(C)C)cc1 [TSA, trichostatin A] |  |  |  |  |  | no effects |
